Source: patent US6875771B2, “Pyridopyrimidine derivatives as 5-HT6 antagonists” (Bristol-Myers Squibb Company, priority 2002, dated 2005)

Biological target: T1, human 5-HT6 receptor (Homo sapiens, UniProt P50406)
T1 construct: expressed in transfected cells
Experiment: Radioligand binding at the 5-HT6 receptor (3H-LSD displacement)
Conditions: inhibition of 3H-LSD (1.6 nM) binding; membranes of cell line stably expressing human 5-HT6 receptor; 60 minutes at 37° C.
Protocol: Radioligand Binding at the 5-HT6 Receptor
Compounds of the present invention were evaluated using a cell line that stably expresses the human 5-HT6 receptor. Membranes prepared from the cell line were incubated with 3H-LSD (1.6 nM) in the presence of increasing concentrations (10^−10 to 10^−6 M) of test compounds for 60 minutes at 37° C. The reaction was terminated by vacuum filtration of the membranes and washing of the filters with assay buffer. Radioactivity retained on the filters was determined using liquid scintillation spectrometry. The potency of the test compound to inhibit 3H-LSD binding to the 5-HT6 receptor was defined as the concentration of compound required to inhibit 50% (IC50) of radioligand binding as determined by computer assisted analysis of the data. Clozapine was used as an internal standard for comparison.

T1 sequence (P50406 whole entry): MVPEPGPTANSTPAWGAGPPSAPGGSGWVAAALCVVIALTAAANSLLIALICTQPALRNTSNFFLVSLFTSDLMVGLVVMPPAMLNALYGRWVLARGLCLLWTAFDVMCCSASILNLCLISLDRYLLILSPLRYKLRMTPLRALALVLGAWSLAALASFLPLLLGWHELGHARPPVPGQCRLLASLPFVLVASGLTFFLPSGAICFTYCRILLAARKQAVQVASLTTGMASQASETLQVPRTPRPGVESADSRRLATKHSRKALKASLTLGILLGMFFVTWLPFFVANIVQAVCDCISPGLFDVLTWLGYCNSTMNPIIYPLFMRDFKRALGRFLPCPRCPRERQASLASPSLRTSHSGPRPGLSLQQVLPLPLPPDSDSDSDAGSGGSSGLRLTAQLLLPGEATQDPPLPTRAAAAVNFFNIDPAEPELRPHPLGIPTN

| IC50 [nM] | Structure (SMILES) |
| --- | --- |
| < 20 | CSc1nc2ccccn2c(=N)c1S(=O)(=O)c1ccc(Cl)cc1 [Example 1, 3-(4-Chloro-benzenesulfonyl)-2-methylsulfanyl-pyrido[1,2-a]pyrimidin-4-ylideneamine] |
| < 20 | CSc1nc2ccccn2c(=N)c1S(=O)(=O)c1ccccc1 [Example 2, 3-Benzenesulfonyl-2-methylsulfanyl-pyrido[1,2-a]pyrimidin-4-ylideneamine] |
| 50 to 100 | CSc1nc2ccccn2c(=N)c1S(=O)(=O)c1ccc2ccccc2c1 [Example 3, 2-Methylsulfanyl-3-(naphthalene-2-sulfonyl)-pyrido[2-a]pyrimidin-4-ylideneamine] |
| < 20 | CSc1nc2ccccn2c(=N)c1S(=O)(=O)c1cc(C)c(Cl)cc1C [Example 4, 3-(2,5-Dimethyl-4-Chloro-benzenesulfonyl)-2-methylsulfanyl-pyrido[1,2-a]pyrimidin-4-ylideneamine] |
| < 20 | CSc1nc2ccccn2c(=N)c1S(=O)(=O)c1ccc(F)cc1 [Example 5, 3-(4-Fluoro-benzenesulfonyl)-2-methylsulfanyl-pyrido[1,2-a]pyrimidin-4-ylideneamine] |
| < 20 | CSc1nc2ccccn2c(=N)c1S(=O)(=O)c1ccc(Cl)c(Cl)c1 [Example 6, 3-(3,4-Dichloro-benzenesulfonyl)-2-methylsulfanyl-pyrido[1,2-a]pyrimidin-4-ylideneamine] |
| < 20 | CSc1nc2ccccn2c(=N)c1S(=O)(=O)c1ccccc1Cl [Example 7, 3-(2-Chloro-benzenesulfonyl)-2-methylsulfanyl-pyrido[1,2-a]pyrimidin-4-ylideneamine] |
| 50 to 100 | CSc1nc2ccccn2c(=N)c1S(=O)(=O)c1ccc(C(C)(C)C)cc1 [Example 8, 3-(4-t-Butyl-benzenesulfonyl)-2-methylsulfanyl-pyrido[1,2-a]pyrimidin-4-ylideneamine] |
| 100 to 1000 | CSc1nc2ccccn2c(=N)c1S(=O)(=O)c1ccc(OC(F)(F)F)cc1 [Example 9, 3-(4-Trifluoromethoxy-benzenesulfonyl)-2-methylsulfanyl-pyrido[1,2-a]pyrimidin-4-ylideneamine] |
| < 20 | CSc1nc2c(C)cccn2c(=N)c1S(=O)(=O)c1ccccc1 [Example 10, 3-Benzenesulfonyl-9-methyl-2-methylsulfanyl-pyrido[1,2-a]pyrimidin-4-ylideneamine] |
| < 20 | CSc1nc2cc(C)ccn2c(=N)c1S(=O)(=O)c1ccccc1 [Example 11, 3-Benzenesulfonyl-8-methyl-2-methylsulfanyl-pyrido[1,2-a]pyrimidin-4-ylideneamine] |
| < 20 | CSc1nc2ccc(Br)cn2c(=N)c1S(=O)(=O)c1ccccc1 [Example 12, 3-Benzenesulfonyl-7-bromo-2-methylsulfanyl-pyrido[1,2-a]pyrimidin-4-ylideneamine] |
| < 20 | CSc1nc2ccc(Cl)cn2c(=N)c1S(=O)(=O)c1ccccc1 [Example 13, 3-Benzenesulfonyl-7-chloro-2-methylsulfanyl-pyrido[1,2-a]pyrimidin-4-ylideneamine] |
| < 20 | CSc1nc2ccc(C)cn2c(=N)c1S(=O)(=O)c1ccccc1 [Example 14, 3-Benzenesulfonyl-7-methyl-2-methylsulfanyl-pyrido[1,2-a]pyrimidin-4-ylideneamine] |
| 100 to 1000 | CSc1nc2c(Br)cc(C)cn2c(=N)c1S(=O)(=O)c1ccccc1 [Example 15, 3-Benzenesulfonyl-9-bromo-7-methyl-2-methylsulfanyl-pyrido[1,2-a]pyrimidin-4-ylideneamine] |
| < 20 | CSc1nc2c(C)cc(Br)cn2c(=N)c1S(=O)(=O)c1ccccc1 [Example 16, 3-Benzenesulfonyl-7-bromo-9-methyl-2-methylsulfanyl-pyrido[1,2-a]pyrimidin-4-ylideneamine] |
| 50 to 100 | CCc1ccn2c(=N)c(S(=O)(=O)c3ccccc3)c(SC)nc2c1 [Example 17, 3-Benzenesulfonyl-8-ethyl-2-methylsulfanyl-pyrido[1,2-a]pyrimidin-4-ylideneamine] |
| 100 to 1000 | CCCc1ccn2c(=N)c(S(=O)(=O)c3ccccc3)c(SC)nc2c1 [Example 18, 3-Benzenesulfonyl-2-methylsulfanyl-8-propyl-pyrido[1,2-a]pyrimidin-4-ylideneamine] |

| IC50 [nM] | Structure (SMILES) |
| --- | --- |
| 100 to 1000 | COC(=O)c1ccc2nc(SC)c(S(=O)(=O)c3ccccc3)c(=N)n2c1 [Example 19, 3-Benzenesulfonyl-4-imino-2-methylsulfanyl-4H-pyrido[1,2-a]pyrimidine-7-carboxylic acid methyl ester] |
| 50 to 100 | CSc1nc2c(C)cc(Cc3ccccc3)cn2c(=N)c1S(=O)(=O)c1ccccc1 [Example 20, 3-Benzenesulfonyl-7-benzyl-9-methyl-2-methylsulfanyl-pyrido[1,2-a]pyrimidin-4-ylideneamine] |
| < 20 | CSc1nc2ccc(F)cn2c(=N)c1S(=O)(=O)c1ccccc1 [Example 21, 3-Benzenesulfonyl-7-fluoro-2-methylsulfanyl-pyrido[1,2-a]pyrimidin-4-ylideneamine] |
| 100 to 1000 | CSc1nc2c(OCc3ccccc3)cccn2c(=N)c1S(=O)(=O)c1ccccc1 [Example 22, 3-Benzenesulfonyl-9-benzyloxy-2-methylsulfanyl-pyrido[1,2-a]pyrimidin-4-ylideneamine] |
| 50 to 100 | CSc1nc2c3ccccc3ccn2c(=N)c1S(=O)(=O)c1ccccc1 [Example 23, 3-Benzenesulfonyl-2-methylsulfanyl-pyrimido[2,1-a]isoquinolin-4-ylideneamine] |
| 50 to 100 | CSc1nc2c3ncccc3ccn2c(=N)c1S(=O)(=O)c1ccccc1 [Example 24, 7-Benzenesulfonyl-6-methylsulfanyl-4,5,8a-triaza-phenanthren-8-ylideneamine] |
| < 20 | CSc1nc2ccc(C(N)=O)cn2c(=N)c1S(=O)(=O)c1ccccc1 [Example 25, 3-Benzenesulfonyl-4-imino-2-methylsulfanyl-4H-pyrido[1,2-a]pyrimidine-7-carboxylic acid amide] |
| < 20 | CNc1nc2ccccn2c(=N)c1S(=O)(=O)c1ccccc1 [Example 26] |
| < 20 | CCNc1nc2ccccn2c(=N)c1S(=O)(=O)c1ccccc1 [Example 27, 3-(Benzenesulfonyl-4-imine-4H-pyrido[1,2-a]pyrimidin-2-yl)-ethyl-amine] |
| 50 to 100 | Cc1ccc(Nc2nc3ccc(C)cn3c(=N)c2S(=O)(=O)c2ccccc2)nc1 [Example 28] |
| < 20 | N=c1c(S(=O)(=O)c2ccccc2)c(NCCO)nc2ccccn12 [Example 29, 2-(3-Benzenesulfonyl-4-imino-4H-pyrido[1,2-a]pyrimidin-2-ylamino)-ethanol] |
| < 20 | COc1nc2ccccn2c(=N)c1S(=O)(=O)c1ccccc1 [Example 30, 3-Benzenesulfonyl-2-methoxy-pyrido[1,2-a]pyrimidin-4-ylideneamine] |
| < 20 | CCOc1nc2ccccn2c(=N)c1S(=O)(=O)c1ccccc1 [Example 31, 3-Benzenesulfonyl-2-ethoxy-pyrido[1,2-a]pyrimidin-4-ylideneamine] |
| 100 to 1000 | C[S+]([O-])c1nc2ccccn2c(=N)c1S(=O)(=O)c1ccccc1 (centres unmarked) [Example 32, 3-Benzenesulfonyl-2-methanesulfinyl-pyrido[1,2-a]pyrimidin-4-ylideneamine] |
| 100 to 1000 | CN=c1c(S(=O)(=O)c2ccccc2)c(SC)nc2ccccn12 [Example 33] |
| 50 to 100 | CSc1nc2ccccn2c(=NC(C)=O)c1S(=O)(=O)c1ccccc1 [Example 34, N-(3-Benzenesulfonyl-2-methylsulfanyl-pyrido[1,2-a]pyrimidin-4-ylidene)-acetamide] |
| 50 to 100 | CSc1nc2ccccn2c(=O)c1S(=O)(=O)c1ccccc1 [Example 35, 3-Benzenesulfonyl-2-methylsulfanyl-pyrido[1,2-a]pyrimidin-4-one] |
